Legend:
[1] = tested on: STAM mouse model for NASH; test: Plasma CK-18, STAM mouse NASH model (Example 1); assay type: in vivo; settings: telmisartan group (10 mg/kg QD, 7 to 9 weeks)
Excerpt: (§1) The STAM™ mouse is a model for NASH created by a combination of chemical and dietary interventions in C57BL/6 mice that manifest NASH at about 8 weeks, which progresses to fibrosis at about 12 weeks and then progresses to HCC at about 16 weeks. See, Saito et al., Sci. Rep. 2015, 5:12466.
(§2) In the study, the control groups were as follows: (i) Untreated Disease Control—a group of STAM mice injected with streptozotocin (STZ, Sigma-Aldrich, USA) at 2 days old, and fed a high fat diet (HFD, 57 kcal % fat, Cat #HFD32, CLEA Japan, Japan) starting at 4 weeks old; and (ii) Positive Control—a group of STAM mice treated with telmisartan (10 mg/kg QD from 7 to 9 weeks). In addition to these control groups, test groups of STAM mice treated with a low dose of ubenimex (5 mg/kg ubenimex BID from 7 to 9 weeks) or a high dose of ubenimex (25 mg/kg BID from 7 to 9 weeks), were included in the study. The low dose is equivalent to a human dose of 30 mg BID. The high dose is equivalent to a human dose of 150 mg BID. The viability, clinical signs and behavior were monitored daily, including body weight, signs of toxicity, moribundity and mortality. The mice were maintained in a SPF facility under controlled conditions of temperature (23±2° C.), humidity (45±10%), lighting (12-hour artificial light and dark cycles; light from 8:00 to 20:00) and air exchange. A high pressure was maintained in the experimental room to prevent contamination of the facility. The mice were housed in TPX cages (CLEA Japan) with a maximum of 4 mice per case.
(§3) All groups of mice were sacrificed at 9 weeks. Once sacrificed, the body weight of each mouse was recorded. The liver of each mouse was removed and weighed. The liver-to-body weight ratio was determined for each mouse. Blood serum levels of CK-18, ALT, and liver triglycerides were determined for each mouse. The livers were then sectioned and stained with hematoxylin and eosin (“HE”) stain, as well as Sirius red staining, to determine liver steatosis (ballooning) and fibrosis, respectively.

[2] = tested on: STAM mouse model for NASH; test: Biochemistry: plasma ALT and liver triglyceride, STAM mouse NASH model (Example 1); assay type: in vivo; settings: telmisartan 10 mg/kg QD, 7 to 9 weeks of age
Excerpt: as §1, §2, §3

[3] = tested on: STAM mouse model for NASH; test: Fibrosis area by Sirius red staining, STAM mouse NASH model (Example 1); assay type: in vivo; settings: telmisartan 10 mg/kg QD, 7 to 9 weeks of age
Excerpt: as §1, §2, §3

[4] = tested on: STAM mouse model for NASH; test: NAFLD Activity Score by HE staining, STAM mouse NASH model (Example 1); assay type: in vivo; settings: telmisartan 10 mg/kg QD, 7 to 9 weeks of age
Excerpt: as §1, §2, §3

[5] = tested on: STAM model of NASH fibrosis; test: Biochemistry: plasma ALT and liver triglyceride, STAM model of NASH with fibrosis (Example 3); assay type: in vivo, mouse; settings: telmisartan 5 mg/kg QD oral, 6 to 11 weeks of age
Method: (§4) Ubenimex or telmisartan was administered orally in a volume at 10 mL/kg. Ubenimex was administered at a dose of 5 mg/kg once daily or twice daily. Telmisartan was administered at a dose of 5 mg/kg once daily.
For plasma biochemistry, blood was collected in polypropylene tubes with anticoagulant (Novo-Heparin, Mochida Pharmaceutical Co. Ltd., Japan) and centrifuged at 1,000×g for 15 minutes at 4° C. The supernatant was collected and stored at −80° C. until use. Plasma ALT level was measured by FUJI DRI-CHEM 7000 (Fujifilm, Japan).
Liver total lipid-extracts were obtained by Folch's method (Folch et al., J. Biol Chem, 1957, 226:497). Liver samples were homogenized in chloroform-methanol (2:1 v/v) and incubated overnight at room temperature. After washing with chloroform-methanol-water (8:4:3 v/v/v), the extracts were evaporated to dryness and dissolved in isopropanol. Liver triglyceride content was measured by Triglyceride E-test (Wako Pure Chemical Industries, Ltd., Japan).
(§5) Study groups: The following study groups were used. Group 1 (Vehicle): 8 NASH mice were orally administered vehicle (RO water) in a volume of 10 mL/kg twice daily from 6 to 11 weeks of age. Group 2 (Ubenimex QD for 5 weeks): 8 NASH mice were orally administered vehicle supplemented with ubenimex at a dose of 5 mg/kg once daily from 6 to 11 weeks of age. Group 3 (Ubenimex BID for 5 weeks): 8 NASH mice were orally administered vehicle supplemented with ubenimex at a dose of 5 mg/kg twice daily from 6 to 11 weeks of age. Group 4 (Ubenimex BID for 2 weeks): 8 NASH mice were orally administered vehicle supplemented with ubenimex at a dose of 5 mg/kg twice daily from 9 to 11 weeks of age. Group 5 (Telmisartan for 5 weeks): 8 NASH mice were orally administered pure water supplemented with telmisartan at a dose of 5 mg/kg once daily from 6 to 11 weeks of age.

[6] = tested on: STAM model of NASH fibrosis; test: NAFLD Activity Score by HE staining, STAM model of NASH with fibrosis (Example 3); assay type: in vivo, mouse; settings: telmisartan 5 mg/kg QD oral, 6 to 11 weeks of age
Method: as §4
For HE staining, sections were cut from paraffin blocks of liver tissue prefixed in Bouin's solution and stained with Lillie-Mayer's hematoxylin (Muto Pure Chemicals Co., Ltd., Japan) and eosin solution (Wako Pure Chemical Industries, Ltd., Japan). NAFLD Activity Score (NAS) was calculated according to the criteria of Kleiner (Kleiner et al., Hepatology, 2005, 41:1313). To visualize collagen deposition, Bouin's fixed liver sections were stained using picro-Sirius red solution (Waldeck, Germany). For quantitative analysis of fibrosis area, bright field images of Sirius red-staining sections were captured around the central vein using a digital camera (DFC295; Leica, Germany) at 200-fold magnification, and the positive areas in 5 fields/section were measured using ImageJ software (National Institutes of Health, USA).
Statistical tests: Statistical analyses were performed using Bonferroni Multiple Comparison Test on GraphPad Prism 6 (GraphPad Software Inc., USA). P values <0.05 were considered statistically significant. A trend or tendency was assumed when a one-tailed t-test returned P values <0.1. Results were expressed as mean±SD.
as §5

CCCc1nc2c(C)cc(-c3nc4ccccc4n3C)cc2n1Cc1ccc(-c2ccccc2C(=O)O)cc1 [Telmisartan, telmisartan]
Plasma CK-18 [1]: 284.5±38.4 mIU/mL | Liver triglyercide (mean ± SD) [2]: 22.4 ± 7.5 mg/g liver | Plasma ALT (mean ± SD) [2]: 44 ± 13 U/L | Sirius red-positive area (fibrosis area, mean ± SD) [3]: 0.71 ± 0.15% | Steatosis score 0, number of mice ([4]; score 0 = <5%): 3 | Hepatocyte ballooning score 0, number of mice ([4]; score 0 = None): 8 | Steatosis score 1, number of mice ([4]; score 1 = 5-33%): 5 | Lobular inflammation score 1, number of mice ([4]; score 1 = <2 foci/200x): 2 | Lobular inflammation score 2, number of mice ([4]; score 2 = 2-4 foci/200x): 4 | Lobular inflammation score 3, number of mice ([4]; score 3 = >4 foci/200x): 2 | NAS (mean ± SD) [4]: 2.6 + 0.9 | Liver triglyceride (mean ± SD) [5]: 24.6 ± 8.4 mg/g liver | Plasma ALT (mean ± SD) [5]: 36 ± 11 U/L | Steatosis score 0, number of mice ([6]; score 0 = <5%): 1 | Lobular inflammation score 0, number of mice ([6]; score 0 = No foci): 1 | Hepatocyte ballooning score 0, number of mice ([6]; score 0 = None): 3 | Steatosis score 1, number of mice ([6]; score 1 = 5-33%): 5 | Hepatocyte ballooning score 1, number of mice ([6]; score 1 = Few balloon cells): 3 | Lobular inflammation score 2, number of mice ([6]; score 2 = 2-4 foci/200x): 3 | Lobular inflammation score 3, number of mice ([6]; score 3 = >4 foci/200x): 2 | NAS (mean ± SD) [6]: 3.3 ± 1.0

Reference: patent US11571403B2, “Methods for the treatment of non-alcoholic steatohepatitis” (Eiger Biopharmaceuticals, Inc., priority 2016, dated 2023)
